The source of these data is US20240058312A1, “METHODS AND MATERIALS FOR TREATING BONE LOSS” (The Penn State Research Foundation, priority 2021, published 2024).

Test [1] concerns C57BL/6J mice with sciatic nerve, biceps femoris and quadriceps femoris muscle crush injury. Put plainly: DEXA scanning of tibial bone after sciatic nerve and muscle crush injury. Conditions: 40 μg/mouse/day IP for 21 days. The format is in vivo. As for the experimental part:
Ten-week-old male C57BL/6J mice (Jackson Laboratories, Bar Harbor, Maine) weighing 25±3 g were used. Sciatic nerve crush injury was performed with muscle crush injury as described elsewhere (Govindappa et al., Int. Immunopharmacol., 82:106330 (2020)). Briefly, after intraperitoneal (IP) ketamine (100 mg/kg)/xylazine (10 mg/kg) anesthesia, the right hindlimb was shaved and prepared with alcohol swabs and povidone-iodine (Betadine). Using a stereo zoom binocular microscope, a lateral skin incision (˜3 cm) was made along the length of the femur and the sciatic nerve (SN) was bluntly exposed through the iliotibial band. Nerve crush injury was performed ˜3 mm proximal to the SN trifurcation and muscle crush injury was performed at the center of Biceps femoris (BF) and Quadriceps femoris (QF) muscle using calibrated forceps (5 mm tip width; 18-1107, Miltex Instruments) for 30 seconds (nerve) and 60 seconds (muscles), respectively. Uninjured contralateral normal limbs were kept without injury as controls. The skin was closed using surgical staples and post-operative slow-release buprenorphine (0.05 mg/kg) was given subcutaneously to all animals as an analgesic. […]
The data were analyzed using one-way and two-way analysis of variance (ANOVA) using GraphPad Prism Version 8.2.0. […]

For test [2] the test system is unchanged. Description: micro-CT of tibial bone microarchitecture after sciatic nerve and muscle crush injury. The format is in vivo. The note with it: tibial metaphysis, 40 μg/mouse/day IP for 21 days, vs. saline. As for the experimental part:
Ten-week-old male C57BL/6J mice (Jackson Laboratories, Bar Harbor, Maine) weighing 25±3 g were used. Sciatic nerve crush injury was performed with muscle crush injury as described elsewhere (Govindappa et al., Int. Immunopharmacol., 82:106330 (2020)). Briefly, after intraperitoneal (IP) ketamine (100 mg/kg)/xylazine (10 mg/kg) anesthesia, the right hindlimb was shaved and prepared with alcohol swabs and povidone-iodine (Betadine). Using a stereo zoom binocular microscope, a lateral skin incision (˜3 cm) was made along the length of the femur and the sciatic nerve (SN) was bluntly exposed through the iliotibial band. Nerve crush injury was performed ˜3 mm proximal to the SN trifurcation and muscle crush injury was performed at the center of Biceps femoris (BF) and Quadriceps femoris (QF) muscle using calibrated forceps (5 mm tip width; 18-1107, Miltex Instruments) for 30 seconds (nerve) and 60 seconds (muscles), respectively. Uninjured contralateral normal limbs were kept without injury as controls. The skin was closed using surgical staples and post-operative slow-release buprenorphine (0.05 mg/kg) was given subcutaneously to all animals as an analgesic.
The experimental animals (6 animals/group) were randomized to normal saline (0.1 mL/mouse) and 4-AP (40 μg/mouse) treatment groups. 4-AP was given by IP injection immediately after surgery and daily for 21 days. Animals were euthanized using isoflurane on post-injury day 22 to harvest hindlimbs. Harvested hindlimbs were subjected to dual-energy X-ray absorptiometry (DEXA) and microcomputed tomography (micro-CT) scanning to analyze the bone quality.
The data were analyzed using one-way and two-way analysis of variance (ANOVA) using GraphPad Prism Version 8.2.0. All values are presented as mean±SEM. Probability (P) values of <0.05 were considered statistically significant.

With `Nc1ccncc1` [4-AP, 4-aminopyridine], in test [1] (combined nerve and muscle crush injury, P<0.05 vs. saline, FIG. 1A), the tibial bone volume entry is “significantly improves”. The “BMD (bone mineral density) of tibial bone” value in test [1] (nerve and muscle injury associated tibial bone, mean, P<0.05 vs. saline (76.57)) is listed as 79.75 mg/cm^2. Moreover, in test [2], the bone volume fraction result is given as “upregulating”, the “structural model index (SMI)” value was “downregulated”, the trabecular separation entry is on record as “downregulated” and the trabecular thickness entry was “upregulating”.
